{"source": "patent US10335503B2", "about": "“Compound that specifically binds to AMPA receptor” (Public University Corporation Yokohama City University, priority 2015, dated 2019)", "details_in_all_cases": "K-2 at 1 × 10^−7 mol/L", "key": {"Serotonin 5HT3": {"molecular_target": "Serotonin 5HT3 (Homo sapiens, UniProt P46098)", "sequence (P46098 24-478)": "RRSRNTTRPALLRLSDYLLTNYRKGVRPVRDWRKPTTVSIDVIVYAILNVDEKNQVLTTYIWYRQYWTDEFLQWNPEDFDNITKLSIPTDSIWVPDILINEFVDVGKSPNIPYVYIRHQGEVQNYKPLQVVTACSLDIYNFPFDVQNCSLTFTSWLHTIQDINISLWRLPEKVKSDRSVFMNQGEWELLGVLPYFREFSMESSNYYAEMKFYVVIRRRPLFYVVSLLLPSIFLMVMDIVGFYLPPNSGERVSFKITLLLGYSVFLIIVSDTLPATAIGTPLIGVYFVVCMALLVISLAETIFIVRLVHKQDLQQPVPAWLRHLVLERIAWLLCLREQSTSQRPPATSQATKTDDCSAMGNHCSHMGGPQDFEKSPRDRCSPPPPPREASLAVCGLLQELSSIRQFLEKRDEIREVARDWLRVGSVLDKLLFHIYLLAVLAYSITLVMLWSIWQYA", "experiment": "Receptor binding panel: Serotonin 5HT3"}, "CRF1": {"molecular_target": "T1, CRF1 (Homo sapiens, UniProt P34998)", "T1 sequence (P34998 24-415)": "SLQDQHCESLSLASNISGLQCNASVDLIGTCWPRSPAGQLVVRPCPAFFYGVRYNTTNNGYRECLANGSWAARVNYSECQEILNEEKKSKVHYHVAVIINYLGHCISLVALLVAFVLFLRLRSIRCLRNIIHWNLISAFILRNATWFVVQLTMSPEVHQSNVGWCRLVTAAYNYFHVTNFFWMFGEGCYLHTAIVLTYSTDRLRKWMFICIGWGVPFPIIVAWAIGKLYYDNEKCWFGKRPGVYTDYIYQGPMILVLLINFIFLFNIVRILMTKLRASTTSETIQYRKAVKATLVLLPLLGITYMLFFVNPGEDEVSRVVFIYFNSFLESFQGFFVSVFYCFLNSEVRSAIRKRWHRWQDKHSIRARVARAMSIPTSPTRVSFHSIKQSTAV", "experiment": "Receptor binding panel: CRF1"}, "α2C-Adrenergic": {"molecular_target": "α2C-Adrenergic (Homo sapiens, UniProt P18825)", "experiment": "Receptor binding panel: α2C-Adrenergic"}, "Angiotensin AT1": {"molecular_target": "Angiotensin AT1 (Homo sapiens, UniProt P30556)", "experiment": "Receptor binding panel: Angiotensin AT1"}, "α1B-Adrenergic": {"molecular_target": "α1B-Adrenergic (Homo sapiens, UniProt P35368)", "experiment": "Receptor binding panel: α1B-Adrenergic"}, "Histamine H1": {"molecular_target": "Histamine H1 (Homo sapiens, UniProt P35367)", "experiment": "Receptor binding panel: Histamine H1"}, "Vasopressin V1": {"molecular_target": "Vasopressin V1 (Homo sapiens, UniProt P37288)", "experiment": "Receptor binding panel: Vasopressin V1"}, "β2-Adrenergic": {"molecular_target": "β2-Adrenergic (Homo sapiens, UniProt P07550)", "experiment": "Receptor binding panel: β2-Adrenergic"}, "GABA A (Agonist site)": {"system": "GABA A (Agonist site)", "experiment": "Receptor binding panel: GABA A (Agonist site)"}, "Neurokinin NK3": {"molecular_target": "Neurokinin NK3 (Homo sapiens, UniProt P29371)", "sequence (P29371 whole entry)": "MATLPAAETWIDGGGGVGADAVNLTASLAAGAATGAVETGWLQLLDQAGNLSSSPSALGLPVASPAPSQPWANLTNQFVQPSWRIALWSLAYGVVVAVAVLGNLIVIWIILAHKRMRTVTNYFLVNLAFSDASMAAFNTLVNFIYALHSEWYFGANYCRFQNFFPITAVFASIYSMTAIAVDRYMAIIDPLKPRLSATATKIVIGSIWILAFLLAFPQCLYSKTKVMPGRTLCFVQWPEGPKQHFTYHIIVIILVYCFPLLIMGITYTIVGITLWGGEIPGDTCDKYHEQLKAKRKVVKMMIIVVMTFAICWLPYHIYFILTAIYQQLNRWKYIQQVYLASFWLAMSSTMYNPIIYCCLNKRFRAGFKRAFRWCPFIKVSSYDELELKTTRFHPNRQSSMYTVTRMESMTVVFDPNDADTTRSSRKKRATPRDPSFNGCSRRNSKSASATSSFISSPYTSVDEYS", "experiment": "Receptor binding panel: Neurokinin NK3"}, "GABA A (BZ central)": {"system": "GABA A (BZ central)", "experiment": "Receptor binding panel: GABA A (BZ central)"}, "Nicotinic": {"system": "Nicotinic", "experiment": "Receptor binding panel: Nicotinic", "set-up": "species or system Human"}, "Adenosine A1": {"molecular_target": "Adenosine A1 (Homo sapiens, UniProt P30542)", "sequence (P30542 whole entry)": "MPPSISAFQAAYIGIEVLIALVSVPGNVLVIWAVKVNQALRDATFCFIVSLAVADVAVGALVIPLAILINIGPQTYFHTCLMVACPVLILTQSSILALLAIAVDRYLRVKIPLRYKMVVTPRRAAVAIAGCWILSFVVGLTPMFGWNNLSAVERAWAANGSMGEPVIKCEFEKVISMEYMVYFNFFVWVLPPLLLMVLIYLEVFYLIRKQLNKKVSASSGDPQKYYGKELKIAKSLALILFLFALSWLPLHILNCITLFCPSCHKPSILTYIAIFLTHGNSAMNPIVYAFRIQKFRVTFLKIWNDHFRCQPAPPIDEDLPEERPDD", "experiment": "Receptor binding panel: Adenosine A1"}, "Vasopressin V1B": {"molecular_target": "Vasopressin V1B (Homo sapiens, UniProt P47901)", "experiment": "Receptor binding panel: Vasopressin V1B"}, "Neurokinin NK2": {"molecular_target": "Neurokinin NK2 (Homo sapiens, UniProt P21452)", "experiment": "Receptor binding panel: Neurokinin NK2"}, "Serotonin 5HT1A": {"molecular_target": "Serotonin 5HT1A (Homo sapiens, UniProt P08908)", "experiment": "Receptor binding panel: Serotonin 5HT1A"}, "Histamine H2": {"molecular_target": "Histamine H2 (Homo sapiens, UniProt P25021)", "sequence (P25021 whole entry)": "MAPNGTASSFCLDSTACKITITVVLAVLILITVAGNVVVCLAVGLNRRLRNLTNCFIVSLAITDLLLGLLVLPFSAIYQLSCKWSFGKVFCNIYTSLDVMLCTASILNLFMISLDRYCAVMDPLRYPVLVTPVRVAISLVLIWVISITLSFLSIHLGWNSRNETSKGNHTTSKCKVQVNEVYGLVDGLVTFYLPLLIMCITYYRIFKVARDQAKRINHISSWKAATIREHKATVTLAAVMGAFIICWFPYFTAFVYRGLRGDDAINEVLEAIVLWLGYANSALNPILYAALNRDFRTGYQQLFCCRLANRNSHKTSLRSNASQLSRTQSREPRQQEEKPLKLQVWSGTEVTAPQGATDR", "experiment": "Receptor binding panel: Histamine H2"}, "Ca channel (Type N)": {"molecular_target": "Ca channel (Type N) (Homo sapiens, UniProt Q00975)", "sequence (Q00975 whole entry)": "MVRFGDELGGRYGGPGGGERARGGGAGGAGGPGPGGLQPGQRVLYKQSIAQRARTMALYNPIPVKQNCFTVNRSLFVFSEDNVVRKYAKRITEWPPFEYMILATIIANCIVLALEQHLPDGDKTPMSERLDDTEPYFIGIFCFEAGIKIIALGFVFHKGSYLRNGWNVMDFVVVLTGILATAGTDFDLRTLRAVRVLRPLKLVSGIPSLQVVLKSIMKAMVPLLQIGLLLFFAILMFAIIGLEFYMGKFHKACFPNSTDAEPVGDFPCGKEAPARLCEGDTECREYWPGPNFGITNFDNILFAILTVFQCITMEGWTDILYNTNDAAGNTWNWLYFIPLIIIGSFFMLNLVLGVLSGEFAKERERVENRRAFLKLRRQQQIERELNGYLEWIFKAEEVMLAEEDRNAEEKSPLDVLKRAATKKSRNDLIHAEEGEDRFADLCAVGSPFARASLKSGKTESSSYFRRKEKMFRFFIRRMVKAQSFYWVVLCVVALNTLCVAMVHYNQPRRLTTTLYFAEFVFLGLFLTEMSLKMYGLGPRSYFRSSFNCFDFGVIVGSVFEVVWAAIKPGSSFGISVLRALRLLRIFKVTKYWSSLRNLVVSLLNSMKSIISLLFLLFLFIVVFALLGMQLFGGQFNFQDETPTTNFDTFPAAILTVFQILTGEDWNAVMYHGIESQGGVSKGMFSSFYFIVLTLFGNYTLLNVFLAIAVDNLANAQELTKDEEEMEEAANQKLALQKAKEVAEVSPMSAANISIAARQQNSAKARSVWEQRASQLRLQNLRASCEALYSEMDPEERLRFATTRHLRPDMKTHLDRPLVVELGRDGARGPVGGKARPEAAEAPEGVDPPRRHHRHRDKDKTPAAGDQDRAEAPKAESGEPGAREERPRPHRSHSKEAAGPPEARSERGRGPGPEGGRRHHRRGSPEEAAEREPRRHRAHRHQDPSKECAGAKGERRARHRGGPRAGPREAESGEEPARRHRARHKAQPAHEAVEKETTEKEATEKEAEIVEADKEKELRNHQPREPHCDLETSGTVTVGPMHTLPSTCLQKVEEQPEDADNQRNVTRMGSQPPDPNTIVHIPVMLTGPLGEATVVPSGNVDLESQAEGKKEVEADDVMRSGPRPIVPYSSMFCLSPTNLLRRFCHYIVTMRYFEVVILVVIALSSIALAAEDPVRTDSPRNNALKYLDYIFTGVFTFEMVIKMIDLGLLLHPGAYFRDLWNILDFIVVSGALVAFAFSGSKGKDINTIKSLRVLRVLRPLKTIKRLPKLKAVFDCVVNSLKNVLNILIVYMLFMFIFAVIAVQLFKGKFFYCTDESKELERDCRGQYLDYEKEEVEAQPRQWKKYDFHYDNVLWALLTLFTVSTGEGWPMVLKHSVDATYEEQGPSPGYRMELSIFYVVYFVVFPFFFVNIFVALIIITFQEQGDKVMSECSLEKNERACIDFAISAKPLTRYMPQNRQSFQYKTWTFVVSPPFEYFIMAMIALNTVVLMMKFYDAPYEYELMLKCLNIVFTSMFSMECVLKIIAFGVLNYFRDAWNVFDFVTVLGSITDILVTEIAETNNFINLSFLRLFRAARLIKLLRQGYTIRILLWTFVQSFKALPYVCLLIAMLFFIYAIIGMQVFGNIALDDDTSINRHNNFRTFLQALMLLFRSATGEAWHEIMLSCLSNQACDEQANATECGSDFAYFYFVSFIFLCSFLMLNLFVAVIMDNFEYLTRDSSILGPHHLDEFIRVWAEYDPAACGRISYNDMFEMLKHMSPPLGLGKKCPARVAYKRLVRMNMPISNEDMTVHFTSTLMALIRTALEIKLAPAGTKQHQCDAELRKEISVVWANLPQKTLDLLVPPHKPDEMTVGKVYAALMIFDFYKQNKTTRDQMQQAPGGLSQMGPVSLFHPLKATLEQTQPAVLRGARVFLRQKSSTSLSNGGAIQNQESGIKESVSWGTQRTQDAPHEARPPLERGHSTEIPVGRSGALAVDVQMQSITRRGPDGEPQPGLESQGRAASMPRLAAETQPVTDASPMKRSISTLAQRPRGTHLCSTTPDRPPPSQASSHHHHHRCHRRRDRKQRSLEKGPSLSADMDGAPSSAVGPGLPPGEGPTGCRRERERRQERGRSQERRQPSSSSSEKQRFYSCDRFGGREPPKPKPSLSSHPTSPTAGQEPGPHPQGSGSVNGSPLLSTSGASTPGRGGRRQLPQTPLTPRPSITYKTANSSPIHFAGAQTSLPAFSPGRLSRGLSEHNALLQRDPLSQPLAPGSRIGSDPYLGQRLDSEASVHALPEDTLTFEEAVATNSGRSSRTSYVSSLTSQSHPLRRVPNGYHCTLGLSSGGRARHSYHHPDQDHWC", "experiment": "Receptor binding panel: Ca channel (Type N)"}, "[1]": {"system": "Ca channel (Type L, Dihydropyridine)", "experiment": "Receptor binding panel: Ca channel (Type L, Dihydropyridine)"}, "Serotonin transporter": {"molecular_target": "Serotonin transporter (Homo sapiens, UniProt P31645)", "sequence (P31645 whole entry)": "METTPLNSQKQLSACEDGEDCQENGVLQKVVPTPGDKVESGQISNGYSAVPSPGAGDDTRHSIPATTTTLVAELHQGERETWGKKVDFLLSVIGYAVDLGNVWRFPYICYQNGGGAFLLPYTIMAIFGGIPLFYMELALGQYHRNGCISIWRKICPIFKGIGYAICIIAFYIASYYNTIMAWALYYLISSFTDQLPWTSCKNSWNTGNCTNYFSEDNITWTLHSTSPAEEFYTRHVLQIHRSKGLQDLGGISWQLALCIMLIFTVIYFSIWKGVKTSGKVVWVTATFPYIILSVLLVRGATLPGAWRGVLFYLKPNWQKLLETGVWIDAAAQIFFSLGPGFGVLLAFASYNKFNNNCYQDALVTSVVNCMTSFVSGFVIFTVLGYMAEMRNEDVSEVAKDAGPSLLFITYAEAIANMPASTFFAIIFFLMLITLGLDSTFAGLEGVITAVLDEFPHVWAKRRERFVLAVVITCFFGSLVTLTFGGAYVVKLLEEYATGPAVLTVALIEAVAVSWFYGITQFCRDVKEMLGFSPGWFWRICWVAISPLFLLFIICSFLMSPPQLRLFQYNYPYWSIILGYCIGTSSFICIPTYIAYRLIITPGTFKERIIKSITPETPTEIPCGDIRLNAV", "experiment": "Receptor binding panel: Serotonin transporter"}, "Glutamate (Kainate)": {"system": "Glutamate (Kainate)", "experiment": "Receptor binding panel: Glutamate (Kainate)"}, "Estrogen": {"system": "Estrogen", "experiment": "Receptor binding panel: Estrogen"}, "[2]": {"system": "Glutamate (NMDA glycine site)", "experiment": "Receptor binding panel: Glutamate (NMDA glycine site)"}, "K Channel KATP": {"system": "K Channel KATP", "experiment": "Receptor binding panel: K Channel KATP"}, "Leukotriene B4": {"system": "Leukotriene B4", "experiment": "Receptor binding panel: Leukotriene B4"}, "Serotonin 5HT2A": {"molecular_target": "Serotonin 5HT2A (Homo sapiens, UniProt P28223)", "sequence (P28223 whole entry)": "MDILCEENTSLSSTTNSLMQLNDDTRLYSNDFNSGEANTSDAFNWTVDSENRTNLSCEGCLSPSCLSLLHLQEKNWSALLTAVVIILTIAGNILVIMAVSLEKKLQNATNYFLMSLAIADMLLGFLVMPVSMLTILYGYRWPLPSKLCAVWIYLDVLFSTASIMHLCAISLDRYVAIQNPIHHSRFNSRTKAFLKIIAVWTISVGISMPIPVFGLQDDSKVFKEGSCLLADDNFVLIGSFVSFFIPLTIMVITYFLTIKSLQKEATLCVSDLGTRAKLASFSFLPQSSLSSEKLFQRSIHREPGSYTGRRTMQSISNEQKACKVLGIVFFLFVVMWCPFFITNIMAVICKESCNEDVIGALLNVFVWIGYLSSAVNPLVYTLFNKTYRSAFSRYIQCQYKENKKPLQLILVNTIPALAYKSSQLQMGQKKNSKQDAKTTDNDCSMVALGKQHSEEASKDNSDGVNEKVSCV", "experiment": "Receptor binding panel: Serotonin 5HT2A"}, "VIP 1": {"molecular_target": "VIP 1 (Homo sapiens, UniProt P32241)", "experiment": "Receptor binding panel: VIP 1"}, "GABA B": {"molecular_target": "GABA B (Homo sapiens, UniProt Q9UBS5)", "experiment": "Receptor binding panel: GABA B"}}}
{"smiles": "CN(CCSc1cc(F)c(OCC(N)=O)c(F)c1)S(=O)(=O)c1ccccc1", "note": "[K-2, {4-[2-(benzenesulfonyl-methyl-amino)-ethylsulfanil]-2,6-difluoro-phenoxy}-acetamide]", "values": [{"measurement": "inhibition at 0.1 µM", "setting": "Serotonin 5HT3", "value": 1.57, "unit": "%"}, {"measurement": "inhibition at 0.1 µM", "setting": "CRF1", "value": 1.37, "unit": "%"}, {"measurement": "inhibition at 0.1 µM", "setting": "α2C-Adrenergic", "value": 5.82, "unit": "%"}, {"measurement": "inhibition at 0.1 µM", "setting": "Angiotensin AT1", "value": 1.52, "unit": "%"}, {"measurement": "inhibition at 0.1 µM", "setting": "α1B-Adrenergic", "value": 0, "unit": "%"}, {"measurement": "inhibition at 0.1 µM", "setting": "Histamine H1", "value": 6.53, "unit": "%"}, {"measurement": "inhibition at 0.1 µM", "setting": "Vasopressin V1", "value": 4.76, "unit": "%"}, {"measurement": "inhibition at 0.1 µM", "setting": "β2-Adrenergic", "value": 3.39, "unit": "%"}, {"measurement": "Inhibition (%)", "setting": "GABA A (Agonist site)", "value": 0.38, "unit": "%"}, {"measurement": "inhibition at 0.1 µM", "setting": "Neurokinin NK3", "value": 0, "unit": "%"}, {"measurement": "Inhibition (%)", "setting": "GABA A (BZ central)", "value": 1.54, "unit": "%"}, {"measurement": "Inhibition (%)", "setting": "Nicotinic", "value": 7.17, "unit": "%"}, {"measurement": "inhibition at 0.1 µM", "setting": "Adenosine A1", "value": 5.29, "unit": "%"}, {"measurement": "inhibition at 0.1 µM", "setting": "Vasopressin V1B", "value": 1.48, "unit": "%"}, {"measurement": "inhibition at 0.1 µM", "setting": "Neurokinin NK2", "value": 0.61, "unit": "%"}, {"measurement": "inhibition at 0.1 µM", "setting": "Serotonin 5HT1A", "value": 1.98, "unit": "%"}, {"measurement": "inhibition at 0.1 µM", "setting": "Histamine H2", "value": 0.79, "unit": "%"}, {"measurement": "inhibition at 0.1 µM", "setting": "Ca channel (Type N)", "value": 0.31, "unit": "%"}, {"measurement": "Inhibition (%)", "setting": "[1]", "value": 0.53, "unit": "%"}, {"measurement": "inhibition at 0.1 µM", "setting": "Serotonin transporter", "value": 0.17, "unit": "%"}, {"measurement": "Inhibition (%)", "setting": "Glutamate (Kainate)", "value": 1.68, "unit": "%"}, {"measurement": "Inhibition (%)", "setting": "Estrogen", "value": 2.83, "unit": "%"}, {"measurement": "Inhibition (%)", "setting": "[2]", "value": 0.64, "unit": "%"}, {"measurement": "Inhibition (%)", "setting": "K Channel KATP", "value": 5.71, "unit": "%"}, {"measurement": "Inhibition (%)", "setting": "Leukotriene B4", "value": 0.00, "unit": "%"}, {"measurement": "inhibition at 0.1 µM", "setting": "Serotonin 5HT2A", "value": 9.32, "unit": "%"}, {"measurement": "inhibition at 0.1 µM", "setting": "VIP 1", "value": 0, "unit": "%"}, {"measurement": "inhibition at 0.1 µM", "setting": "GABA B", "value": 1.9, "unit": "%"}]}
